Assay results from ChEMBL document CHEMBL1932930, “Synthesis and biological assessment of novel 2-thiazolylhydrazones and computational analysis of their recognition by monoamine oxidase B” (Eur J Med Chem, 2012).

What was measured:
[1] = molecular target: T1, Amine oxidase [flavin-containing] A (Homo sapiens, UniProt P21397); assay: Inhibition of human recombinant MAO-A expressed in baculovirus infected BTI-TN-5B1-4 insect cells assessed as inhibition of hydrogen peroxide production from […] after 15 mins by fluorimetric method; details: bti-tn-5b1-4, 0.25 h
T1 sequence (P21397 whole entry): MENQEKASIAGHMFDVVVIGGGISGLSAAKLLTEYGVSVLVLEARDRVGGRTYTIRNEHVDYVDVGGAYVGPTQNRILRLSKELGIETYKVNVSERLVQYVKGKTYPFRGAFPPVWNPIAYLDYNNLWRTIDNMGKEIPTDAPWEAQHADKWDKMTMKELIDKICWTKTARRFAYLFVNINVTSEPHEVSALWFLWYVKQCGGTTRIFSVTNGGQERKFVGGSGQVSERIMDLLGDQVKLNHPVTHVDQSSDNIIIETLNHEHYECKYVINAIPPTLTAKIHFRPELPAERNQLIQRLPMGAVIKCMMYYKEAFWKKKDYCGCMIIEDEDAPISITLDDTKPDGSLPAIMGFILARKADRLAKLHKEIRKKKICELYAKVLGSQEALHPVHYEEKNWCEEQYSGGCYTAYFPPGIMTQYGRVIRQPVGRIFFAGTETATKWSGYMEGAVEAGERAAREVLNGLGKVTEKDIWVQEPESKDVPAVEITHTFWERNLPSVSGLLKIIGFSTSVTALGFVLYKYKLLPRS

[2] = molecular target: T1, Amine oxidase [flavin-containing] A; assay: Inhibition of human recombinant MAO-A expressed in baculovirus infected BTI-TN-5B1-4 insect cells assessed as inhibition of hydrogen peroxide production from […] at 100 uM after 15 mins by fluorimetric method; details: for inhibition at 100 µM: BTI-TN-5B1-4, human, 0.25 h; for inhibition (INH): human, bti-tn-5b1-4, 0.25 h, 100 µM
[3] = molecular target: T2, Amine oxidase [flavin-containing] B (Homo sapiens, UniProt P27338); assay: biochemical
T2 sequence (P27338 whole entry): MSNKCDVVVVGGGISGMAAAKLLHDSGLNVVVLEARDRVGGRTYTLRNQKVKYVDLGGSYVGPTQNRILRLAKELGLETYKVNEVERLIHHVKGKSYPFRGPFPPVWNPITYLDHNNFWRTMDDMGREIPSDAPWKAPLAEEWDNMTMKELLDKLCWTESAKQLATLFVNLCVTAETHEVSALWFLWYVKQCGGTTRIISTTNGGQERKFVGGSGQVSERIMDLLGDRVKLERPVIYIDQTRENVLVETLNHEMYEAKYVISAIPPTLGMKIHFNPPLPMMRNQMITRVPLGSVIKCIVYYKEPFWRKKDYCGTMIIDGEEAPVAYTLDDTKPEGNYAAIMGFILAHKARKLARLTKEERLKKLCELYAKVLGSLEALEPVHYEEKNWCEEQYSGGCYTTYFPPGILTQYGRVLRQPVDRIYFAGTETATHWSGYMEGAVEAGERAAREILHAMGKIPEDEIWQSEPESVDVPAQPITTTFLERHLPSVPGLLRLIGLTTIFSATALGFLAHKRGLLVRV
Description: Inhibition of human recombinant MAO-B expressed in baculovirus infected BTI-TN-5B1-4 insect cells assessed as inhibition of hydrogen peroxide production from p-tryptamine after 15 mins by fluorimetric method

[4] = molecular target: T2, Amine oxidase [flavin-containing] B; assay: Inhibition of human recombinant MAO-B expressed in baculovirus infected BTI-TN-5B1-4 insect cells assessed as inhibition of hydrogen peroxide production from […] at 100 uM after 15 mins by fluorimetric method; details: BTI-TN-5B1-4, human, 0.25 h
[5] = molecular target: T2, Amine oxidase [flavin-containing] B; assay: Inhibition of human recombinant MAO-B expressed in baculovirus infected BTI-TN-5B1-4 insect cells assessed as inhibition of hydrogen peroxide production from […] at 1 mM after 15 mins by fluorimetric method; details: bti-tn-5b1-4, 0.25 h, 1000 µM

Row | SMILES | inhibition (INH) [1] | inhibition at 100 µM [2] [%] | IC50 [3] [nM] | inhibition (INH) [2] | inhibition at 100 µM [4] [%] | inhibition (INH) [5]
1 | Fc1ccc(-c2csc(N/N=C/c3ccccc3)n2)cc1 | Dose-dependent effect | 40 | 790 | – | – | –
2 | COc1ccc(/C=N/Nc2nc(-c3ccc(F)cc3)cs2)cc1OC | Dose-dependent effect | 40 | 2390 | – | – | –
3 | Cc1ccccc1/C=N/Nc1nc(-c2ccc(F)cc2)cs1 | Dose-dependent effect | 40 | 190 | – | – | –
4 | Clc1ccc(-c2csc(N/N=C/c3ccccc3)n2)cc1 | Dose-dependent effect | 40 | – | – | 40 | –
5 | Cc1ccccc1/C=N/Nc1nc(-c2ccc(Cl)cc2)cs1 | Dose-dependent effect | 40 | – | – | 40 | –
6 | Cc1ccc(/C=N/Nc2nc(-c3ccc(Cl)cc3)cs2)cc1 | Dose-dependent effect | – | – | Not Active | 40 | –
7 | O=C(NCCN1CCOCC1)c1ccc(Cl)cc1 [MOCLOBEMIDE] | Dose-dependent effect | – | – | – | – | Not Active

Further lines, with some results ahead:

Row | inhibition (INH) [1] | inhibition at 100 µM [2] [%] | IC50 [3] [nM] | inhibition (INH) [2] | inhibition at 100 µM [4] [%] | SMILES | inhibition (INH) [5]
8 | Dose-dependent effect | 40 | 1320 | – | – | Fc1ccc(-c2csc(N/N=C/c3ccc(Cl)cc3)n2)cc1 | –
9 | Dose-dependent effect | 40 | 9240 | – | – | COc1ccc(/C=N/Nc2nc(-c3ccc(F)cc3)cs2)cc1 | –
10 | Dose-dependent effect | – | 44700 | Not Active | – | Cc1ccc(/C=N/Nc2nc(-c3ccc(F)cc3)cs2)cc1 | –
11 | Dose-dependent effect | 40 | – | – | 40 | COc1ccc(/C=N/Nc2nc(-c3ccc(Cl)cc3)cs2)cc1OC | –
12 | Dose-dependent effect | 40 | – | – | 40 | COc1ccc(/C=N/Nc2nc(-c3ccc(Cl)cc3)cs2)cc1 | –
13 | Dose-dependent effect | 40 | – | – | 40 | Clc1ccc(/C=N/Nc2nc(-c3ccc(Cl)cc3)cs2)cc1 | –
14 | Dose-dependent effect | – | – | – | – | C#CCN(C)CCCOc1ccc(Cl)cc1Cl [CLORGILINE] | –
